Test: xn = mol fraction of the nth substance listed
Conditions: Liquid, Vibrating tube method

CCC(=O)OC [methyl propanoate] + CCCCCCC
Conditions	mass density [kg/m3]
288.15 K, x1 = 0.0584	696.1
288.15 K, x1 = 0.1524	710.11
288.15 K, x1 = 0.2121	719.49
288.15 K, x1 = 0.2626	728.22
288.15 K, x1 = 0.2841	731.88
288.15 K, x1 = 0.3577	745.5
288.15 K, x1 = 0.4021	754.13
288.15 K, x1 = 0.4565	765.31
288.15 K, x1 = 0.5036	775.51
288.15 K, x1 = 0.5554	787.28
288.15 K, x1 = 0.6032	798.81
288.15 K, x1 = 0.651	810.73
288.15 K, x1 = 0.7008	824.05
288.15 K, x1 = 0.742	835.61
288.15 K, x1 = 0.7927	850.46
288.15 K, x1 = 0.8457	866.96
288.15 K, x1 = 0.953	903.48
288.15 K, x1 = 1	921.21
298.15 K, x1 = 0.0606	687.94
298.15 K, x1 = 0.1046	694.01
298.15 K, x1 = 0.1706	703.97
298.15 K, x1 = 0.2332	713.99
298.15 K, x1 = 0.2863	722.89
298.15 K, x1 = 0.332	730.95
298.15 K, x1 = 0.3827	740.59
298.15 K, x1 = 0.4242	748.73
298.15 K, x1 = 0.4831	760.98
298.15 K, x1 = 0.5328	771.82
298.15 K, x1 = 0.5887	784.89
298.15 K, x1 = 0.6395	797.24
298.15 K, x1 = 0.6831	808.46
298.15 K, x1 = 0.733	821.94
298.15 K, x1 = 0.7758	834.28
298.15 K, x1 = 0.8196	847.29
298.15 K, x1 = 0.8646	861.68
298.15 K, x1 = 0.9035	874.46
298.15 K, x1 = 0.9591	893.83
298.15 K, x1 = 1	909.1
308.15 K, x1 = 0.046	676.88
308.15 K, x1 = 0.0974	683.97
308.15 K, x1 = 0.1499	691.6
308.15 K, x1 = 0.2093	700.71
308.15 K, x1 = 0.2472	706.83
308.15 K, x1 = 0.2655	709.84
308.15 K, x1 = 0.3021	716.16
308.15 K, x1 = 0.3462	723.99
308.15 K, x1 = 0.3973	733.51
308.15 K, x1 = 0.4379	741.49
308.15 K, x1 = 0.5001	754.33
308.15 K, x1 = 0.5482	764.86
308.15 K, x1 = 0.6013	777.11
308.15 K, x1 = 0.6438	787.52
308.15 K, x1 = 0.7002	801.92
308.15 K, x1 = 0.7516	815.93
308.15 K, x1 = 0.7947	828.3
308.15 K, x1 = 0.8541	846.5
308.15 K, x1 = 0.8904	858.19
308.15 K, x1 = 0.9494	878.31
308.15 K, x1 = 1	896.91
318.15 K, x1 = 0.054	669.26
318.15 K, x1 = 0.1006	675.53
318.15 K, x1 = 0.1635	684.64
318.15 K, x1 = 0.1984	689.88
318.15 K, x1 = 0.2627	699.98
318.15 K, x1 = 0.2892	704.22
318.15 K, x1 = 0.3492	714.64
318.15 K, x1 = 0.3962	723.32
318.15 K, x1 = 0.4482	733.48
318.15 K, x1 = 0.5006	744.15
318.15 K, x1 = 0.554	755.69
318.15 K, x1 = 0.5928	764.54
318.15 K, x1 = 0.6531	779.07
318.15 K, x1 = 0.7022	791.53
318.15 K, x1 = 0.7463	803.36
318.15 K, x1 = 0.796	817.45
318.15 K, x1 = 0.8421	831.26
318.15 K, x1 = 0.8911	846.73
318.15 K, x1 = 0.9487	866.17
318.15 K, x1 = 1	884.71
328.15 K, x1 = 0.0434	659.02
328.15 K, x1 = 0.1	666.42
328.15 K, x1 = 0.1539	673.86
328.15 K, x1 = 0.2137	682.78
328.15 K, x1 = 0.263	690.45
328.15 K, x1 = 0.361	707.07
328.15 K, x1 = 0.3858	711.54
328.15 K, x1 = 0.4619	725.95
328.15 K, x1 = 0.5057	734.85
328.15 K, x1 = 0.5548	745.3
328.15 K, x1 = 0.6006	755.62
328.15 K, x1 = 0.6513	767.59
328.15 K, x1 = 0.7013	780.04
328.15 K, x1 = 0.7484	792.52
328.15 K, x1 = 0.7954	805.67
328.15 K, x1 = 0.8441	820.03
328.15 K, x1 = 0.8954	836.18
328.15 K, x1 = 0.9351	849.33
328.15 K, x1 = 1	872.22

From the NIST ThermoML archive (doi:10.1021/je4009415)
